Test results published in paper PMC5917077, “CD22-Binding Synthetic Sialosides Regulate B Lymphocyte Proliferation Through CD22 Ligand-Dependent and Independent Pathways, and Enhance Antibody Production in Mice” (Frontiers in Immunology, 2018).

Key:
CD22 (Siglec-2) [1] = biological target: T1, CD22 (Siglec-2) (Homo sapiens, UniProt P20273); assay: competition ELISA, human CD22-Fc binding to immobilized α1-acid glycoprotein
T1 construct: amino-terminal domains (domains 1–3) fused to Fc region of human IgG1 (CD22-Fc)
T1 sequence (P20273 20-326 limits assumed): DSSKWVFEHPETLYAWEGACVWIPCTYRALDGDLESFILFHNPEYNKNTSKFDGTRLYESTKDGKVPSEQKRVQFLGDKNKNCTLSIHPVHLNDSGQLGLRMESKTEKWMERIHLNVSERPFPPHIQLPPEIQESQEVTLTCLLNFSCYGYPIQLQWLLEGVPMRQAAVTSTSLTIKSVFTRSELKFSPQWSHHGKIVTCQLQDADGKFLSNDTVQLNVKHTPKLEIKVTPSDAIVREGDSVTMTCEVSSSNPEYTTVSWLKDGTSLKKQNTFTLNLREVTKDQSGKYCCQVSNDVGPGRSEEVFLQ

CD22 (Siglec-2) [2] = biological target: T2, CD22 (Siglec-2) (Mus musculus, UniProt P35329); assay: competition ELISA, mouse CD22-Fc binding to immobilized biotinylated synthetic CD22 ligand
T2 construct: amino-terminal domains (domains 1–3) fused to Fc region of human IgG1 (CD22-Fc)
T2 sequence (P35329 22-347 limits assumed): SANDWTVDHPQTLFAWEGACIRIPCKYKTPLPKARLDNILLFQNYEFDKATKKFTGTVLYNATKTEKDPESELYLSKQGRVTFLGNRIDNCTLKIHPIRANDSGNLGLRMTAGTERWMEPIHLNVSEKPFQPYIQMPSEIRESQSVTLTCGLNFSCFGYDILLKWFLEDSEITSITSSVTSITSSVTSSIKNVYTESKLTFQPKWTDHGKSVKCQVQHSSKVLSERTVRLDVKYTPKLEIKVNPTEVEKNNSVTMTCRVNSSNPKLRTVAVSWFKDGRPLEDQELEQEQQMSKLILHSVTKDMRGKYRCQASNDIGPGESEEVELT

| Compound | IC50 (CD22 (Siglec-2) [1]) [nM] | IC50 (CD22 (Siglec-2) [2]) [nM] |
| --- | --- | --- |
| O=C(Cc1ccc(-c2ccc(O)cc2)cc1)NC[C@@H](O)[C@@H](O)[C@@H]1OC(OCc2ccc(F)cc2)(C(=O)O)C[C@H](O)[C@H]1NC(=O)CO (stereo partly shown) [GSC839] | ~100 | ~100 |
| O=C(Cc1ccc(-c2ccc(O)cc2)cc1)NC[C@@H](O)[C@@H](O)[C@@H]1O[C@@](OCc2ccccc2)(C(=O)O)C[C@H](O)[C@H]1NC(=O)CO [GSC718] | ~100 | ~100 |
